The test system of the experiment is HCV 1b genotype. The experiment can be described thus: HCV Replicon assay (HCV-neo replicon cells), 1b genotype. Type of experiment: cell-based. The settings on record: Hepatitis C virus, HCV 1b genotype replicon, read-out: 1b EC50 (in μM or range). The procedure:
An HCV Replicon assay was utilized in the present disclosure, and was prepared, conducted and validated as described in commonly owned PCT/US2006/022197 and in O'Boyle et al., Antimicrob. Agents Chemother., 49(4):1346-1353 (April 2005). Assay methods incorporating luciferase reporters have also been used as described (Apath.com).
HCV-neo replicon cells and replicon cells containing mutations in the NS5A region were used to test the currently described family of compounds. The compounds were determined to have more than 10-fold less inhibitory activity on cells containing mutations than wild-type cells. Thus, the compounds of the present disclosure can be effective in inhibiting the function of the HCV NS5A protein and are understood to be as effective in combinations as previously described in application PCT/US2006/022197 and commonly owned WO 04/014852. Further, the compounds of the present disclosure can be effective against the HCV 1b genotype. It should also be understood that the compounds of the present disclosure can inhibit multiple genotypes of HCV. […] In one embodiment compounds of the present disclosure are inhibitory versus 1a, 1b, 2a, 2b, 3a, 4a, and 5a genotypes. […] The compounds of the present disclosure may inhibit HCV by mechanisms in addition to or other than NS5A inhibition. In one embodiment the compounds of the present disclosure inhibit HCV replicon and in another embodiment the compounds of the present disclosure inhibit NS5A.
On the technique in general: A replicon is a self-replicating genome or part of one, used to study replication in cells.

Like-named read-outs stand apart in the source and are kept apart here.

What is called EC50 is the concentration at which the effect is half-maximal. Regarding `CN(C)[C@@H](C(=O)N1CCC[C@H]1c1ncc(-c2ccc(-c3cnc(-c4c[nH]c([C@@H]5CCCN5C(=O)OCc5ccccc5)n4)o3)cc2)[nH]1)c1ccccc1` [Example 28, Benzyl (2S)-2-(4-(5-(4-(2-((2S)-1-((2R)-2-((N,N-dimethyl)amino)-2-phenylacetyl)-2-pyrrolidinyl)-1H-imidazol-4-yl)phenyl)-1,3-oxazol-2-yl)-1H-imidazol-2-yl)-1-pyrrolidinecarboxylate], for the setting “value given as range class”, the EC50 was in the range of 0.001 to 0.01 µM. As for `COC(=O)N[C@H](C(=O)N1CCC[C@H]1c1ncc(-c2cnc(-c3ncc(-c4cnc([C@@H]5CCCN5C(=O)[C@@H](NC(=O)OC)C(C)C)[nH]4)s3)s2)[nH]1)C(C)C` [Example 14, Methyl ((1S)-1-(((2S)-2-(4-(5′-(2-((2S)-1-((2S)-2-((methoxycarbonyl)amino)-3-methylbutanoyl)-2-pyrrolidinyl)-1H-imidazol-4-yl)-2,2′-bi-1,3-thiazol-5-yl)-1H-imidazol-2-yl)-1-pyrrolidinyl)carbonyl)-2-methylpropyl)carbamate], for the setting “value given as range class”, the EC50 was less than 0.001 µM. The same measure, in the same setting: the same measure for `COC(=O)N[C@@H](C(=O)N1CCC[C@H]1c1ncc(-c2ccc(-c3ccc(-c4cnc([C@@H]5CCCN5C(=O)[C@H](NC(=O)OC)C(C)C)[nH]4)s3)s2)[nH]1)C(C)C` [Example 3, Methyl ((1R)-1-(((2S)-2-(4-(5′-(2-((2S)-1-((2R)-2-((methoxycarbonyl)amino)-3-methylbutanoyl)-2-pyrrolidinyl)-1H-imidazol-4-yl)-2,2′-bithiophen-5-yl)-1H-imidazol-2-yl)-1-pyrrolidinyl)carbonyl)-2-methylpropyl)carbamate]: 0.01 to 10 µM; for `CCN(CC)[C@@H](C(=O)N1CCC[C@H]1c1nc(CCc2ccc(CCc3cnc([C@@H]4CCCN4C(=O)[C@@H](c4ccccc4)N(CC)CC)[nH]3)cc2)c[nH]1)c1ccccc1` [Example 40, (1R)-2-((2S)-2-(4-(2-(4-(2-(2-((2S)-1-((2R)-2-(diethylamino)-2-phenylacetyl)-2-pyrrolidinyl)-1H-imidazol-5-yl)ethyl)phenyl)ethyl)-1H-imidazol-2-yl)-1-pyrrolidinyl)-N,N-diethyl-2-oxo-1-phenylethanamine]: less than 0.001 µM.

As for `C[C@H](NC(=O)[C@@H](c1ccccc1)N(C)C)c1ncc(-c2cccc(-c3cnc(-c4c[nH]c([C@@H]5CCCN5C(=O)[C@@H](c5ccccc5)N(C)C)n4)o3)c2)[nH]1` [Example 24, (2R)-2-(Dimethylamino)-N-((1S)-1-(4-(3-(2-(2-((2S)-1-((2R)-2-(dimethylamino)-2-phenylacetyl)-2-pyrrolidinyl)-1H-imidazol-4-yl)-1,3-oxazol-5-yl)phenyl)-1H-imidazol-2-yl)ethyl)-2-phenylacetamide], the EC50 (numeric value) is 0.00181 µM. Still for that read-out and setting: the same measure for `COC(=O)N[C@@H](C(=O)N1CCC[C@H]1c1ncc(-c2ncc(-c3cnc(-c4cnc([C@@H]5CCCN5C(=O)[C@H](NC(=O)OC)C(C)C)[nH]4)s3)s2)[nH]1)C(C)C` [Example 11, Methyl ((1R)-1-(((2S)-2-(4-(2′-(2-((2S)-1-((2R)-2-((methoxycarbonyl)amino)-3-methylbutanoyl)-2-pyrrolidinyl)-1H-imidazol-4-yl)-5,5′-bi-1,3-thiazol-2-yl)-1H-imidazol-2-yl)-1-pyrrolidinyl)carbonyl)-2-methylpropyl)carbamate]: 5.86 µM. As for `COCC[C@H](NC(=O)OC)C(=O)N1CCC[C@H]1c1ncc(-c2ccc(-c3ccc(-c4cnc([C@@H]5CCCN5C(=O)[C@H](CCOC)NC(=O)OC)[nH]4)s3)s2)[nH]1` [Example 2, Methyl ((1S)-3-methoxy-1-(((2S)-2-(4-(5′-(2-((2S)-1-(N-(methoxycarbonyl)-O-methyl-L-homoseryl)-2-pyrrolidinyl)-1H-imidazol-4-yl)-2,2′-bithiophen-5-yl)-1H-imidazol-2-yl)-1-pyrrolidinyl)carbonyl)propyl)carbamate], the EC50 (value given as range class) is less than 0.001 µM.

As for `COC(=O)N[C@H](C(=O)N1CCC[C@H]1c1ncc(C#Cc2ccc(-c3ccc(-c4cnc([C@@H]5CCCN5C(=O)[C@@H](NC(=O)OC)C(C)C)[nH]4)cc3)cc2)[nH]1)C(C)C` [Example 33, Methyl ((1S)-1-(((2S)-2-(4-(4′-((2-((2S)-1-((2S)-2-((methoxycarbonyl)amino)-3-methylbutanoyl)-2-pyrrolidinyl)-1H-imidazol-4-yl)ethynyl)-4-biphenylyl)-1H-imidazol-2-yl)-1-pyrrolidinyl)carbonyl)-2-methylpropyl)carbamate], under “value given as range class”, the half-maximal effective concentration (EC50) is less than 0.001 µM.

Turning to `COC(=O)N[C@@H](C)C(=O)N1CCC[C@H]1c1ncc(-c2cnc(-c3ncc(-c4cnc([C@@H]5CCCN5C(=O)[C@H](C)NC(=O)OC)[nH]4)s3)s2)[nH]1` [Example 20, Methyl ((1S)-2-((2S)-2-(4-(5′-(2-((2S)-1-(N-(methoxycarbonyl)-L-alanyl)-2-pyrrolidinyl)-1H-imidazol-4-yl)-2,2′-bi-1,3-thiazol-5-yl)-1H-imidazol-2-yl)-1-pyrrolidinyl)-1-methyl-2-oxoethyl)carbamate], the EC50 (value given as range class) was in the range of 0.001 to 0.01 µM. On the same count and under the same terms, the same measure for `COC(=O)N[C@@H](C(=O)N1CCC[C@H]1c1ncc(CCc2ccc(-c3cnc([C@@H]4CCCN4C(=O)[C@H](NC(=O)OC)c4ccccc4)[nH]3)cc2)[nH]1)c1ccccc1` [Example M2, Methyl ((1R)-2-((2S)-2-(4-(4-(2-(2-((2S)-1-((2R)-2-((methoxycarbonyl)amino)-2-phenylacetyl)-2-pyrrolidinyl)-1H-imidazol-4-yl)ethyl)phenyl)-1H-imidazol-2-yl)-1-pyrrolidinyl)-2-oxo-1-phenylethyl)carbamate]: less than 0.001 µM. Take `COC(=O)N[C@@H](C)C(=O)N1CCC[C@H]1c1nc(CCc2ccc(CCc3cnc([C@@H]4CCCN4C(=O)[C@H](C)NC(=O)OC)[nH]3)cc2)c[nH]1` [Example 42, methyl ((1S)-2-((2S)-2-(4-(2-(4-(2-(2-((2S)-1-(N-(methoxycarbonyl)-L-alanyl)-2-pyrrolidinyl)-1H-imidazol-4-yl)ethyl)phenyl)ethyl)-1H-imidazol-2-yl)-1-pyrrolidinyl)-1-methyl-2-oxoethyl)carbamate]: the concentration giving a half-maximal response (EC50) (numeric value) was 0.274 µM. Regarding `COC(=O)N[C@H](C(=O)N1CCC[C@H]1c1nc(/C=C/c2ccc(/C=C/c3cnc([C@@H]4CCCN4C(=O)[C@@H](NC(=O)OC)C(C)C)[nH]3)cc2)c[nH]1)C(C)C` [Example 38, methyl ((1S)-1-(((2S)-2-(4-((E)-2-(4-((E)-2-(2-((2S)-1-((2S)-2-((methoxycarbonyl)amino)-3-methylbutanoyl)-2-pyrrolidinyl)-1H-imidazol-4-yl)vinyl)phenyl)vinyl)-1H-imidazol-2-yl)-1-pyrrolidinyl)carbonyl)-2-methylpropyl)carbamate], for the setting “value given as range class”, the EC50 was less than 0.001 µM. On to `COC(=O)N[C@H](C(=O)N1CCC[C@H]1c1nc(/C=C/c2ccc(/C=C/c3cnc([C@@H]4CCCN4C(=O)[C@@H](NC(=O)OC)[C@@H](C)OC)[nH]3)cc2)c[nH]1)[C@@H](C)OC` [Example 39, methyl ((1S,2R)-2-methoxy-1-(((2S)-2-(4-((E)-2-(4-((E)-2-(2-((2S)-1-(N-(methoxycarbonyl)-O-methyl-L-threonyl)-2-pyrrolidinyl)-1H-imidazol-4-yl)vinyl)phenyl)vinyl)-1H-imidazol-2-yl)-1-pyrrolidinyl)carbonyl)propyl)carbamate], for which, where the note is “value given as range class”, the concentration giving a half-maximal response (EC50) was less than 0.001 µM. Same read-out and setting: the same measure for `COC(=O)N[C@@H](C)C(=O)N1CCC[C@H]1c1nc(/C=C/c2ccc(/C=C/c3cnc([C@@H]4CCCN4C(=O)[C@H](C)NC(=O)OC)[nH]3)cc2)c[nH]1` [Example 37, methyl ((1S)-2-((2S)-2-(4-((E)-2-(4-((E)-2-(2-((2S)-1-(N-(methoxycarbonyl)-L-alanyl)-2-pyrrolidinyl)-1H-imidazol-4-yl)vinyl)phenyl)vinyl)-1H-imidazol-2-yl)-1-pyrrolidinyl)-1-methyl-2-oxoethyl)carbamate]: less than 0.001 µM; for `COC(=O)N[C@H](C(=O)N1CCC[C@H]1c1ncc(-c2ncc(-c3cnc(-c4cnc([C@@H]5CCCN5C(=O)[C@@H](NC(=O)OC)[C@@H](C)OC)[nH]4)s3)s2)[nH]1)[C@@H](C)OC` [Example 12, Methyl ((1S,2R)-2-methoxy-1-(((2S)-2-(4-(2′-(2-((2S)-1-(N-(methoxycarbonyl)-O-methyl-L-threonyl)-2-pyrrolidinyl)-1H-imidazol-4-yl)-5,5′-bi-1,3-thiazol-2-yl)-1H-imidazol-2-yl)-1-pyrrolidinyl)carbonyl)propyl)carbamate]: 0.01 to 10 µM; for `O=C([C@@H](c1ccccc1)N1CCCCC1)N1CCC[C@H]1c1ncc(C#CC#Cc2cnc([C@@H]3CCCN3C(=O)[C@@H](c3ccccc3)N3CCCCC3)[nH]2)[nH]1` [Example 30, (2R,2′R)-1,1′-((2S,2′S)-2,2′-(5,5′-(Buta-1,3-diyne-1,4-diyl)bis(1H-imidazole-5,2-diyl))bis(pyrrolidine-2,1-diyl))bis(2-phenyl-2-(piperidin-1-yl)ethanone)]: less than 0.001 µM.

Turning to `COC(=O)N[C@H](C(=O)N1CCC[C@H]1c1ncc(C#CC#Cc2cnc([C@@H]3CCCN3C(=O)[C@@H](NC(=O)OC)C(C)C)[nH]2)[nH]1)C(C)C` [Example 31, Dimethyl (2S,2′S)-1,1′-((2S,2′S)-2,2′-(5,5′-(buta-1,3-diyne-1,4-diyl)bis(1H-imidazole-5,2-diyl))bis(pyrrolidine-2,1-diyl))bis(3-methyl-1-oxobutane-2,1-diyl)dicarbamate], for the setting “value given as range class”, the 50% effective concentration (EC50) is less than 0.001 µM.

Values taken from US8618153B2, “Hepatitis C virus inhibitors” (Bristol-Myers Squibb Company, priority 2009, dated 2013).
